Where a name gives a salt, the structure may show the parent alone.

For data set [1] the following is noted: human, in vivo.
Data set [2] concerns pain syndromes caused by denervation or amputation. Briefly: Treatment of patients with pain syndromes caused by denervation. It counts as in vivo. As to conditions: five of nine patients, no advantage after antiinflammatory analgesics or opioids; same conditions as above (5 mg daily). On the procedure:
In the pain syndromes caused by denervation or amputation pain develops on the limb or body part which is denervated and therefore is insensible to nociceptive stimuli (“painful anaesthesia”).
Nine patients who had no advantages after treatment with antiinflammatory analgesica or opioids were tested in the same conditions as above described.

The subject of data set [3] is migraine attacks longer than 72 h. Briefly: Acute treatment of patients with migraine attacks longer than 72 h. The format is in vivo. To be noted: 8 patients, 20 mg acutely given.
A further data set concerns primary fibromyalgia. In words: Treatment of patients with primary fibromyalgia. The format is in vivo. As to conditions: 16 patients, same conditions as migraine tests (5 mg daily). The source says: Systemic pain of muscles, tendons, viscera (oesophagus, stomach, colon); these syndromes are considered particularly difficult to hale.

As for `COc1cc2c(cc1OC)C(=O)C(CC1CCN(Cc3ccccc3)CC1)C2` (centres unmarked) [Donepezil hydrochloride, 1H-Inden-1-one, 2,3-dihydro-5,6-dimethoxy-2-[[1-(phenylmethyl)4-piperidinyl]methyl]-, hydrochloride], in data set [1], the “tolerance to the treatment” value is listed as “high tolerance”. Also, the improvement of conditions in data set [2] was 50-80%. Further, the “results of acute treatment of migraine attacks” value in data set [3] is given as “highly satisfactory”. In the data set on primary fibromyalgia, the “cases treated with improvement of the patient's conditions” value is 60% and the “cases with total disappearance of the pain” value turned out to be 10%.

(Values after US6608088B1, “Use of donerezil for the treatment of functional and/or organic pain syndromes” (priority 1998, dated 2003).)
